Target: T1, HpxJ (Klebsiella michiganensis, UniProt B5B0L4)
T1 sequence (B5B0L4 1-413): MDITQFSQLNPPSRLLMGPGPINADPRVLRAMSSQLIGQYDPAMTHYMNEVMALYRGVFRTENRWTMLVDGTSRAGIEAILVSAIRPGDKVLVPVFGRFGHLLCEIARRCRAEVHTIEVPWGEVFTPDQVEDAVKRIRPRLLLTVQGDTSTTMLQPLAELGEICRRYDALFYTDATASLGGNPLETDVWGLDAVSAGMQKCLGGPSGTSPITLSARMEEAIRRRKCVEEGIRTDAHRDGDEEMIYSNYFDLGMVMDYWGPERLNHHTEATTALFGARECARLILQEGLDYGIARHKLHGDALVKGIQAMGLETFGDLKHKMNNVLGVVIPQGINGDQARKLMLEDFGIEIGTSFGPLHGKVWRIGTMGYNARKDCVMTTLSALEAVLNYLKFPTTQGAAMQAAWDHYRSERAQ
Test: pre-steady-state PLP to PMP conversion
Format: biochemical
Settings: amino donor; glyoxylate as acceptor in HPLC assay

## N[C@@H](CC(=O)O)C(=O)O [aspartate]
  rate of first half reaction: an order of magnitude faster than the next fastest substrate, aspartate

Source: publication PMC2912414 (Biochemistry, 2010)
